The source of these data is ChEMBL document CHEMBL1141521, “Individual stereoisomers of phosphinic dipeptide inhibitor of leucine aminopeptidase” (Bioorg Med Chem Lett, 2008).

One may read the Ki as a dissociation constant, usually derived from enzyme kinetics or from competition with a known ligand.

The target in this assay is T1, Leucine aminopeptidase (Plasmodium falciparum 3D7, UniProt Q8IL11).
T1 sequence (Q8IL11 whole entry): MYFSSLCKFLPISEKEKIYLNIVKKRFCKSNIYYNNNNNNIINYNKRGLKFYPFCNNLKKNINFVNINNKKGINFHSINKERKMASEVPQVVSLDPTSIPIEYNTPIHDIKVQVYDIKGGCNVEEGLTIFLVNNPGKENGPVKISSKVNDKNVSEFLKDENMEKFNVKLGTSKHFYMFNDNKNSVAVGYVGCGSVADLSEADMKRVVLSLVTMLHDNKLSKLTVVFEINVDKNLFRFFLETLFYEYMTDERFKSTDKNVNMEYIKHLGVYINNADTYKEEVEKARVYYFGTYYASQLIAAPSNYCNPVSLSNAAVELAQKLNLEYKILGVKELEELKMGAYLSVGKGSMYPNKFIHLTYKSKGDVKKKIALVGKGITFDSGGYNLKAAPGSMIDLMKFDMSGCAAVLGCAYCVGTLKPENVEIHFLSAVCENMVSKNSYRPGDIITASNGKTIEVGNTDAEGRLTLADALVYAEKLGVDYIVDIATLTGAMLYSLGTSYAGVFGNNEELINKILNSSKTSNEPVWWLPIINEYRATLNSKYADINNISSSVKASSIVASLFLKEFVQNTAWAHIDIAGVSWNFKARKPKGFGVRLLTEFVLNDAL
Kind of assay: Inhibition of Plasmodium falciparum recombinant leucine aminopeptidase.

SMILES strings stand for the structures.

With `NC(CCc1ccccc1)P(=O)(O)CC(Cc1ccccc1)C(=O)O` (stereo unspecified), the Ki turned out to be 13.2 nM.
